Assay results from publication PMC11058261, “Nucleoside Phosphorylases make N7-xanthosine” (Nature Communications, 2024).

Key:
human purine NP = target: T1, human purine NP (Homo sapiens, UniProt P00491); assay: HPLC of glycosylation products; assay type: biochemical; details: 500 µM X, 500 µM ribose 1-phosphate; 1 g/L enzyme; pH 9 or pH 7; 50 °C
T1 construct: gene PNP
T1 sequence (P00491 1-289): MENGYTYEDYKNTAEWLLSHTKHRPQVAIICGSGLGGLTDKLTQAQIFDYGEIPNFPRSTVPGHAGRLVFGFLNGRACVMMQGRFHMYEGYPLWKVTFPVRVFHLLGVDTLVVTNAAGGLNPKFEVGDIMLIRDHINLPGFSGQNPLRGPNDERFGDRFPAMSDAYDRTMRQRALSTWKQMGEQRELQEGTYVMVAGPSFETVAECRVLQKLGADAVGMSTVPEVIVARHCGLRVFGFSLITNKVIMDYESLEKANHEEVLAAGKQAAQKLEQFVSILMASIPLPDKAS

[1] = target: T2, GtPyNP (pyrimidine NP from G. thermoglucosidasius) (Parageobacillus thermoglucosidasius, UniProt A0AAN0YQC1); assay: HPLC of glycosylation products; assay type: biochemical; details: 500 µM X, 500 µM ribose 1-phosphate; 1 g/L enzyme; pH 9 or pH 7; 50 °C
T2 construct: gene deoA
T2 sequence (A0AAN0YQC1 entry or part of it): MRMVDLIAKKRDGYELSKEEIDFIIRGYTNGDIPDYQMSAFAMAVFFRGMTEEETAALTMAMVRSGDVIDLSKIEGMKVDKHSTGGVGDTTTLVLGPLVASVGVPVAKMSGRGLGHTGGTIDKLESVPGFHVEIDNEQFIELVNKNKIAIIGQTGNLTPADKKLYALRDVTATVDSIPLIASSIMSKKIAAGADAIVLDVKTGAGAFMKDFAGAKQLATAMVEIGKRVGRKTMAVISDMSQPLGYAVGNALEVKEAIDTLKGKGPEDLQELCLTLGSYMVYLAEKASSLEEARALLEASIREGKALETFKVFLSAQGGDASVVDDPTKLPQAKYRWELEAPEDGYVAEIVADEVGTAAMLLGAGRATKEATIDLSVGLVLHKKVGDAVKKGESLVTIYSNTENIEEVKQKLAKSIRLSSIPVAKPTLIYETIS

HPLC of glycosylation products (human purine NP)	Structure (SMILES)	HPLC of glycosylation products [1]
mammalian NPs (human purine NP)	O=P(O)(O)O[C@H]1O[C@H](CO)[C@@H](O)[C@H]1O [Rib1P, ribose 1-phosphate]	purine and pyrimidine NP from Geobacillus thermoglucosidasius
mammalian NPs (human purine NP)	O=c1[nH]c(=O)c2[nH]cnc2[nH]1 [X, xanthine]	purine and pyrimidine NP from Geobacillus thermoglucosidasius
